Measured values taken from patent publication US11793845B2, “Composition for ameliorating peripheral sensory neuropathy” (KINKI UNIVERSITY, priority 2016, dated 2023).

Assays:
Type in all cases: in vivo
[1] = system: Peripheral Sensory Neuropathy Induced by Bortezomib in Mice; assay: von Frey test, bortezomib-induced peripheral sensory neuropathy; conditions: bortezomib 1 mg/kg once a week alone, compared with control group; three days after the administration
Source text: (§1) The mice in the three groups in the above (1) were put in a cage and a filament having a strength of 0.16 g was pressed on the plantar surface of the leg to measure the number of times (a score) of avoidance response.
(§2) In the present test, the mice were divided into three groups by a difference in test objects. As in Example 1, male Balb/c mice of 6 to 7 weeks old were used. The mice were divided into a total of three groups, a control group, a bortezomib administration group, and a bortezomib and Lentinus edodes mycelium extract administration group (bortezomib+Lentinus edodes mycelium extract administration group).
(§3) Bortezomib was administered to each mouse once a day at a dose of 1 mg/kg. Further, the Lentinus edodes mycelium extract was administered to each mouse once a day at a dose of 2 g/kg.
Further, the number of times of administration was set to once a week (on Day 0, Day 7, and Day 14) for bortezomib and daily (from Day 0 to Day 15) for the Lentinus edodes mycelium extract in both the von Frey test and the cold plate test below.
Evaluation was performed in the same manner as in the test with oxaliplatin in Example 1. Referring to FIG. 7, the horizontal axis indicates an elapsed time after administration (days) and the vertical axis indicates the avoidance response (scores). Open circles with a solid line represent the control group. Filled circles with a solid line represent the group in which only bortezomib was administered. Open squares with a dash line represent the group in which bortezomib and the Lentinus edodes mycelium extract were administered at the same time (bortezomib+Lentinus edodes mycelium extract administration group). When the difference with the control group was determined to be significant using a significance level of 5%, the data were marked by “*”.
(§4) In the present test, the mice were divided into six groups by a difference in test objects. As in Example 1, male Balb/c mice of 6 to 7 weeks old were used. […]

[2] = system: Peripheral Sensory Neuropathy Induced by Bortezomib in Mice; assay: cold plate test, bortezomib-induced peripheral sensory neuropathy; conditions: bortezomib 1 mg/kg once a day alone; Day 3
Method: (§5) The effect of the Lentinus edodes mycelium extract on the paresthesia to cold stimulation was tested by performing the cold plate test. The mice in the three groups in the above (1) were put on a cold plate set to 10° C. and a response time for avoidance (a latency) was measured. The shorter latency means that the mouse avoids the cold stimulation of the cold plate more.
as §2, §3
Evaluation was performed in the same manner as in the test with oxaliplatin in Example 1. Referring to FIG. 8, the horizontal axis indicates the elapsed time after administration (days) and the vertical axis indicates the avoidance response time (seconds). Open circles with a solid line represent the control group. Filled circles with a solid line represent the group in which only bortezomib was administered. Open squares with a dash line represent the group in which bortezomib and the Lentinus edodes mycelium extract were administered at the same time (bortezomib+Lentinus edodes mycelium extract administration groups). When the difference with the control group was determined to be significant using a significance level of 5%, the data were marked by “*”.
as §4

[3] = system: Peripheral Sensory Neuropathy Induced by Vincristine in Mice; assay: von Frey test, vincristine-induced peripheral sensory neuropathy; conditions: vincristine 0.2 mg/kg once a week alone, compared with control group; three days after the administration
Source text: as §1
as §2, with “vincristine” for “bortezomib”, “(vincristine+Lentinus” for “(bortezomib+Lentinus”
(§6) Vincristine was administered to each mouse once a day at a dose of 0.2 mg/kg. Further, the Lentinus edodes mycelium extract was administered to each mouse once a day at a dose of 2 g/kg.
Further, the number of times of administration was set to once a week (on Day 0, Day 7, and Day 14) for vincristine and daily (from Day 0 to Day 15) for the Lentinus edodes mycelium extract in both the von Frey test and the cold plate test below.
Evaluation was performed in the same manner as in the test with oxaliplatin in Example 1. Referring to FIG. 5, the horizontal axis indicates an elapsed time after administration (days) and the vertical axis indicates the avoidance response (scores). Open circles with a solid line represent the control group. Filled circles with a solid line represent the group in which only vincristine was administered. Open squares with a dash line represent the group in which vincristine and the Lentinus edodes mycelium extract were administered at the same time (vincristine+Lentinus edodes mycelium extract administration group). When the difference with the control group was determined to be significant using a significance level of 5%, the data were marked by “*”.
as §4

[4] = system: Peripheral Sensory Neuropathy Induced by Vincristine in Mice; assay: cold plate test, vincristine-induced peripheral sensory neuropathy; conditions: vincristine 0.2 mg/kg once a day alone; Day 3
Method: as §5
In the present test, the mice were divided into three groups by a difference in test objects. As in Example 1, male Balb/c mice of 6 to 7 weeks old were used. The mice were divided into a total of three groups, a control group, a vincristine
administration group, and a vincristine and Lentinus edodes mycelium extract administration group (vincristine+Lentinus edodes mycelium extract administration group).
as §6
Evaluation was performed in the same manner as in the test with oxaliplatin in Example 1. Referring to FIG. 6, the horizontal axis indicates the elapsed time after administration (days) and the vertical axis indicates the avoidance response time (seconds). Open circles with a solid line represent the control group. Filled circles with a solid line represent the group in which only vincristine was administered. Open squares with a dash line represent the group in which vincristine and the Lentinus edodes mycelium extract were administered at the same time (vincristine+Lentinus edodes mycelium extract administration group). When the difference with the control group was determined to be significant using a significance level of 5%, the data were marked by “*”.
as §4

[5] = system: Peripheral Sensory Neuropathy Induced by Oxaliplatin in Mice; assay: von Frey test, oxaliplatin-induced peripheral sensory neuropathy; conditions: oxaliplatin 6 mg/kg once a week alone, compared with control group; 0.16 g filament
Method: (§7) Male Balb/c mice of 6 to 7 weeks old were used. The mice were divided into three groups: a control group, an oxaliplatin administration group, and an oxaliplatin and Lentinus edodes mycelium extract administration group (oxaliplatin+Lentinus edodes mycelium extract administration group). Oxaliplatin was administered to each mouse once a day at a dose of 6 mg/kg. Further, the Lentinus edodes mycelium extract was administered to each mouse once a day at a dose of 2 g/kg.
(§8) Further, the number of times of administration was set to once a week (on Day 0, Day 7, and Day 14) for oxaliplatin and daily (from Day 0 to Day 15) for the Lentinus edodes mycelium extract in both the von Frey test and the cold plate test below.
The higher number of times of avoidance means that the mouse avoids the stimulation by the filament more. […] When the difference with the control group was determined to be significant using a significance level of 5%, the data were marked by “*”.

[6] = system: Peripheral Sensory Neuropathy Induced by Oxaliplatin in Mice; assay: cold plate test, oxaliplatin-induced peripheral sensory neuropathy; conditions: oxaliplatin 6 mg/kg once a week alone; Day 3; cold plate 10° C.
Method: as §7, §8
Oxaliplatin was administered to each mouse once a day at a dose of 6 mg/kg. Further, the Lentinus edodes mycelium extract was administered to each mouse once a day at a dose of 2 g/kg three days or six days after the administration of oxaliplatin. These groups are referred to as “Lentinus edodes mycelium extract 3-day delayed administration group” and “Lentinus edodes mycelium extract 6-day delayed administration group”, respectively.
Further, groups in which duloxetine was administered after the administration of oxaliplatin were prepared for comparison.

## CC(C)C[C@H](NC(=O)[C@H](Cc1ccccc1)NC(=O)c1cnccn1)B(O)O [bortezomib]
[1]
  avoidance response (scores), von Frey test: significantly increased
[2]
  latency to the cold stimulation (avoidance response time), cold plate test: significantly reduced

## CC[C@]1(O)C[C@H]2CN(CCc3c([nH]c4ccccc34)[C@@](C(=O)OC)(c3cc4c(cc3OC)N(C=O)[C@H]3[C@@](O)(C(=O)OC)[C@H](OC(C)=O)[C@]5(CC)C=CCN6CC[C@]43[C@@H]65)C2)C1 [vincristine]
[3]
  avoidance response (scores), von Frey test: significantly increased
[4]
  latency to the cold stimulation (avoidance response time), cold plate test: significantly reduced

## O=C1[O][Pt]2([NH][C@@H]3CCCC[C@H]3[NH]2)[O]C1=O [oxaliplatin]
[5]
  avoidance response (scores), von Frey test: significantly increased
[6]
  latency to the cold stimulation (avoidance response time), cold plate test: significantly reduced
